The nature of data set [1]: log P by HPLC on reversed-phase column (C18), EEC directive 79/831 Annex V.A8. It is filed as physicochemical. The settings on record: HPLC reversed-phase C18, 43° C., data refer to the E isomer. As for the experimental part:
The log P values reported in the tables and Preparation Examples above were determined in accordance with EEC directive 79/831 Annex V.A8 by HPLC (High Performance Liquid Chromatography) using a reversed-phase column (C18). Temperature 43° C. The calibration is effected with unbranched alkan-2-ones (having 3 to 16 carbon atoms), for which the log P values are known.

In data set [2] the test system is Boophilus microplus. Nature of the data set: Boophilus microplus - injection test (BOOPMI Inj). It is filed as in vivo. The settings on record: application rate 20 μg/animal, injection into engorged adult female cattle ticks. Here is the method:
Boophilus microplus—Injection Test (BOOPMI Inj)
(§1) Solvent: dimethyl sulfoxide
To produce a suitable preparation of active compound, 10 mg of active compound are mixed with 0.5 ml of solvent and the concentrate is diluted with solvent to the desired concentration.
1 μl of the active compound solution is injected into the abdomen of 5 engorged adult female cattle ticks (Boophilus microplus). The animals are transferred into dishes and kept in a climate-controlled room.
The activity is assessed after the desired time by laying of fertile eggs. Eggs which are not visibly fertile are stored in a climate-controlled cabinet until the larvae hatch after about 42 days. An efficacy of 100% means that none of the ticks has laid any fertile eggs; 0% means that all the eggs are fertile.

Data set [3] deals with Lucilia cuprina. The experiment in a line: Lucilia cuprina test (LUCICU). Format: in vivo. The settings on record: application rate 100 ppm. Here is the method:
Lucilia cuprina-Test (LUCICU)
as §1
(§2) To produce a suitable preparation of active compound, 10 mg of active compound are mixed with 0.5 ml of dimethyl sulfoxide, and the concentrate is diluted with water to the desired concentration.
About 20 L1 larvae of the Australian sheep blowfly (Lucilia cuprina) are transferred into a test vessel containing minced horsemeat and the active compound preparation of the desired concentration.
After the desired time, the kill in % is determined. 100% means that all the larvae have been killed; 0% means that no larvae have been killed.

Data set [4] has as its system Musca domestica. Nature of the data set: Musca domestica test (MUSCDO). Format: in vivo. Here is the method: Musca domestica-Test (MUSCDO)
as §1, §2
Vessels containing a sponge treated with sugar solution and the active compound preparation of the desired concentration are populated with 10 adult houseflies (Musca domestica).
After the desired time, the kill in % is determined. 100% means that all of the flies have been killed; 0% means that none of the flies have been killed.

In data set [5] the test system is Myzus persicae. The experiment in a line: Myzus persicae - spray test (MYZUPE). Format: in vivo. The settings on record: application rate 100 g/ha, Chinese cabbage leaf disks. An outline of the steps:
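Chinese cabbage leaf disks carrying all stages of green peach aphid were sprayed with compound in acetone/DMF with emulsifier, diluted in water. After the chosen period, efficacy was scored as % aphids killed.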

Data set [6] has as its system Phaedon cochleariae. The experiment in a line: Phaedon cochleariae - spray test (PHAECO). The settings on record: application rate 100 g/ha, Chinese cabbage leaf disks. Format: in vivo. An outline of the steps:
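Active compound in acetone/dimethylformamide with alkylaryl polyglycol ether emulsifier was diluted with emulsifier-containing water to the test concentration and sprayed. After the set period, efficacy was scored as % larvae killed (100% = all beetle larvae dead, 0% = none).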

Data set [7] concerns Spodoptera frugiperda. Nature of the data set: Spodoptera frugiperda - spray test (SPODFR). It is filed as in vivo. The settings on record: application rate 100 g/ha, maize leaf disks. In short, it runs like this:
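Maize leaf disks sprayed with compound in acetone/DMF with alkylaryl polyglycol ether emulsifier, diluted in water to test concentration, then infested with armyworm caterpillars once dry. Efficacy given as % caterpillars killed (100% all, 0% none) after the chosen period.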

The subject of data set [8] is Tetranychus urticae. The experiment in a line: Tetranychus urticae - spray test, OP-resistant (TETRUR). The settings on record: application rate 100 g/ha, bean leaf disks. It is filed as in vivo. As for the experimental part: Tetranychus urticae—Spray Test, OP-Resistant (TETRUR)
Solvent: 78.0 parts by weight of acetone • • 1.5 parts by weight of dimethylformamide
Emulsifier: 0.5 parts by weight of alkylaryl polyglycol ether
To produce a suitable active compound preparation, 1 part by weight of active compound is mixed with the stated amounts of solvent and emulsifier, and the concentrate is diluted with emulsifier-containing water to the desired concentration.
Disks of bean leaves (Phaseolus vulgaris) infested with all stages of the greenhouse red spider mite (Tetranychus urticae) are sprayed with an active compound preparation of the desired concentration.
After the desired period of time, the efficacy in % is determined. 100% means that all the spider mites have been killed; 0% means that none of the spider mites have been killed.

SMILES strings stand for the structures.

Take `CON=Cc1cc(C)c(NC(=O)c2cc(C(F)F)nn2-c2ncccc2Cl)c(C(=O)NN(C)C(=O)OC)c1` (mixture of isomers) [A-41]: the log p in data set [1] (Table A) stood at 2.46. For the same molecule, in data set [2], the “efficacy (no fertile eggs laid)” value was 100%. In data set [3], the “efficacy (kill of L1 larvae)” value was 100%. Further, the “efficacy (kill of adult houseflies)” value in data set [4] (application rate 100 ppm) was 80%. The “efficacy (aphids killed)” value in data set [5] is 90%. Besides, the “efficacy (beetle larvae killed)” value in data set [6] is reported as 100%. Moreover, the “efficacy (caterpillars killed)” value in data set [7] came out at 100%.
In data set [1] (Table A), `CON=Cc1cc(C)c(NC(=O)c2cc(Br)nn2-c2ncccc2Cl)c(C(=O)NNC(=O)OC)c1` (mixture of isomers) [A-42] displayed a log p of 2.38. Also, the “efficacy (no fertile eggs laid)” value in data set [2] worked out at 100%. Also, the “efficacy (kill of L1 larvae)” value in data set [3] is on record as 100%. Moreover, in data set [4] (application rate 100 ppm), the “efficacy (kill of adult houseflies)” value is on record as 80%. Moreover, the “efficacy (aphids killed)” value in data set [5] worked out at 100%. The “efficacy (beetle larvae killed)” value in data set [6] worked out at 100%. In addition, the “efficacy (caterpillars killed)” value in data set [7] came to 100%.
For the molecule `CON=Cc1cc(C)c(NC(=O)c2cc(C(F)F)nn2-c2ncccc2Cl)c(C(=O)NNC(=O)OC)c1` (mixture of isomers) [A-39], in data set [1] (Table A), the log p is given as 2.26. In addition, the “efficacy (no fertile eggs laid)” value in data set [2] is recorded as 100%. The “efficacy (kill of L1 larvae)” value in data set [3] is given as 100%. In addition, in data set [4] (application rate 100 ppm), the “efficacy (kill of adult houseflies)” value is 80%. Further, the “efficacy (aphids killed)” value in data set [5] is 90%. Also, in data set [6], the “efficacy (beetle larvae killed)” value is recorded as 100%. In addition, the “efficacy (caterpillars killed)” value in data set [7] is 100%.
In data set [1] (Table C), `CNC(=O)c1cc(C=NOC)cc(C)c1NC(=O)c1cc(C(F)F)nn1-c1ncccc1Cl` [C-28] returned a log p of 2.48. The “efficacy (no fertile eggs laid)” value in data set [2] came out at 100%. Also, the “efficacy (kill of L1 larvae)” value in data set [3] is given as 100%. Moreover, the “efficacy (kill of adult houseflies)” value in data set [4] (application rate 100 ppm) was 80%. Moreover, the “efficacy (aphids killed)” value in data set [5] is on record as 90%. Also, in data set [6], the “efficacy (beetle larvae killed)” value was 100%. Further, in data set [7], the “efficacy (caterpillars killed)” value was 100%.
In data set [1] (Table B), `CON=Cc1cc(C)c(NC(=O)c2cc(C(F)(F)F)nn2-c2ncccc2Cl)c(C(=O)NC2COC2)c1` (mixture of isomers) [B-02] yielded a log p of 2.78. Moreover, in data set [2], the “efficacy (no fertile eggs laid)” value amounted to 100%. In data set [3], the “efficacy (kill of L1 larvae)” value came out at 100%. In addition, the “efficacy (aphids killed)” value in data set [5] was 100%. The “efficacy (beetle larvae killed)” value in data set [6] is given as 100%. Moreover, the “efficacy (caterpillars killed)” value in data set [7] stood at 100%. For the same molecule, the “efficacy (spider mites killed)” value in data set [8] amounted to 90%.
Take `CON=Cc1cc(C)c(NC(=O)c2cc(OC)nn2-c2ncccc2Cl)c(C(=O)NC(C)C)c1` [C-24]: the log p in data set [1] (Table C) is 2.65. For the same molecule, the “efficacy (no fertile eggs laid)” value in data set [2] turned out to be 100%. In addition, the “efficacy (kill of L1 larvae)” value in data set [3] is recorded as 100%. Further, the “efficacy (kill of adult houseflies)” value in data set [4] (application rate 100 ppm) is recorded as 100%. Besides, the “efficacy (aphids killed)” value in data set [5] is recorded as 100%. In addition, the “efficacy (beetle larvae killed)” value in data set [6] came to 100%. For the same molecule, the “efficacy (caterpillars killed)” value in data set [7] came out at 100%.
On to `CON=Cc1cc(C)c(NC(=O)c2cc(OCC(F)F)nn2-c2ncccc2Cl)c(C(=O)NC(C)C)c1` [C-19], for which the log p in data set [1] (Table C) is reported as 3.07. The “efficacy (no fertile eggs laid)” value in data set [2] is reported as 100%. For the same molecule, the “efficacy (kill of L1 larvae)” value in data set [3] came to 100%. In addition, in data set [4] (application rate 20 ppm), the “efficacy (kill of adult houseflies)” value is recorded as 80%. Moreover, the “efficacy (aphids killed)” value in data set [5] is given as 90%. Further, the “efficacy (caterpillars killed)” value in data set [7] is listed as 100%.
As for `CON=Cc1cc(C)c(NC(=O)c2cc(C(F)F)nn2-c2ncccc2Cl)c(C(=O)NC(C)C)c1` [C-29], the log p in data set [1] (Table C) was 2.98. Further, the “efficacy (no fertile eggs laid)” value in data set [2] was 100%. In addition, the “efficacy (kill of L1 larvae)” value in data set [3] is 100%. The “efficacy (kill of adult houseflies)” value in data set [4] (application rate 20 ppm) stood at 100%. Further, the “efficacy (aphids killed)” value in data set [5] amounted to 100%. The “efficacy (beetle larvae killed)” value in data set [6] is given as 100%. In data set [7], the “efficacy (caterpillars killed)” value turned out to be 100%.

For the origin of these results see US9609868B2, “Alkoximino-substituted anthranilic acid diamides as pesticides” (BAYER CROPSCIENCE AKTIENGESELLSCHAFT, priority 2013, dated 2017).
